# BindingDB's records for doi:10.1021/jm00063a004 (Cnrs-Cercoa, 1993)
# Molecular target: Trypsin (Sus scrofa) (UniProt P00761)
# Experiment: Apparent binding constant against porcine trypsin
# Chain of Trypsin (Sus scrofa) (P00761 whole entry, looked up): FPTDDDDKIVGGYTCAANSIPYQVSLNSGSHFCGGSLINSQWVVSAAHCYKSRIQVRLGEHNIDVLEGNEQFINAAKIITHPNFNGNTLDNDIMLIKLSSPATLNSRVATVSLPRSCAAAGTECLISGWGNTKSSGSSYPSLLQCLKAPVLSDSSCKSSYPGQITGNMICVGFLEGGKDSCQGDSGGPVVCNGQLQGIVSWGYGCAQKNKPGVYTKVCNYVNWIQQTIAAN
smiles,measurement,value
"N=C(N)NCCCC1NC(=O)CNC(=O)c2cc(ccc2CBr)NC1=O (stereo unspecified) [N-[3-(11-Bromomethyl-3,6,9-trioxo-2,5,8-triaza-bicyclo[8.3.1]tetradeca-1(13),10(14),11-trien-4-yl)-propyl]-guanidine]",Ki,20 µM
